Measurements: patent publication US20250223306A1, “TEAD INHIBITORS AND METHODS OF USE” (Sporos BioDiscovery, Inc., priority 2022, published 2025)

How the values were obtained:
BHY cells = assay: BHY proliferation and cell viability assay (CTG); format: cell-based; details: BHY cell line
Experimental: BHY cells were trypsinised, counted and plated at the specified cell density in 200 μl of growth media in 96 well flat bottom tissue culture treated plates. The plated cells were incubated overnight at 37° C., 5% CO2 before being treated with compounds in triplicate for each assay point. 50 μl of the serially diluted compound was added to each well giving a final DMSO concentration of 0.5% per well and a total volume of 250 μl per well. The treated cells were incubated for 144 hours (6 days) at 37° C., 5% CO2. Following compound treatment, the remaining viable cells were detected using the Promega CellTiter-Glo 2.0 assay as follows: 150 μl of media was removed from each of the wells to be assayed and 100 μl of room temperature CellTiter-Glo 2.0 reagent was added. The plate was placed on an orbital shaker at 500 rpm at room temperature for 2 minutes, and then incubated without shaking for a further 10 minutes at room temperature. 150 μl of cell lysate was removed from each well and dispensed into a single well of a white opaque 96 well plate. Luminescence at 545 nm was read using a BMG CLARIOstar plate reader. The luminescent signal was directly proportional to number of viable cells, the percent of viable cells relative to the DMSO control was then calculated for each assay point. Percent viability relative to DMSO control was plotted against compound concentration and a curve fitted with non-linear regression in GraphPad
Prism software. EC50 and IC50 values are calculated using GraphPad Prism software as follows: For EC50 values, a non-constrained four-parameter logistic curve fit was used (Sigmoidal, 4PL, X is concentration). For Absolute IC50 values the baseline was constrained to Y=0 (Absolute IC50, X is concentration). Area Under the Curve (AUC): Prism computes area-under-the-curve by the trapezoidal method. The analysis sees a fitted curve as simply a series of connected XY points. Prism simply computes the area under the “curve” defined by connecting the points by straight lines. The units of the AUC are the units of the Y axis times units of the X axis.

SDM103T2 cells = assay: SDM103T2 proliferation and cell viability assay (CTG); format: cell-based; details: SDM103T2 cell line, 144 hours
Experimental: SDM103T2 cells were trypsinised, counted and plated at the specified cell density in 200 μl of growth media in 96 well flat bottom tissue culture treated plates. The plated cells were incubated overnight at 37° C., 5% CO2 before being treated with compounds in triplicate for each assay point. 50 μl of the serially diluted compound was added to each well giving a final DMSO concentration of 0.5% per well and a total volume of 250 μl per well. The treated cells were incubated for 144 hours (6 days) at 37° C., 5% CO2. Following compound treatment the remaining viable cells were detected using the Promega CellTiter-Glo 2.0 assay as follows: 150 μl of media was removed from each of the wells to be assayed and 100 μl of room temperature CellTiter-Glo 2.0 reagent was added. The plate was placed on an orbital shaker at 500 rpm at room temperature for 2 minutes, and then incubated without shaking for a further 10 minutes at room temperature. 150 μl of cell lysate was removed from each well and dispensed into a single well of a white opaque 96 well plate. Luminescence at 545 nm was read using a BMG CLARIOstar plate reader. The luminescent signal was directly proportional to number of viable cells, the percent of viable cells relative to the DMSO control was then calculated for each assay point. Percent viability relative to DMSO control was plotted against compound concentration and a curve fitted with non-linear regression in GraphPad Prism software. EC50 and IC50 values were calculated using GraphPad Prism software as follows: For EC50 values a non-constrained four-parameter logistic curve fit was used (Sigmoidal, 4PL, X is concentration). For Absolute IC50 values the baseline was constrained to Y=0 (Absolute IC50, X is concentration). Area Under the Curve (AUC): Prism computes area-under-the-curve by the trapezoidal method. The analysis sees a fitted curve as simply a series of connected XY points. Prism simply computes the area under the “curve” defined by connecting the points by straight lines. The units of the AUC are the units of the Y axis times units of the X axis.

TEAD1 = TEAD1 (Homo sapiens, UniProt P28347); assay: TEAD thermal shift assay (TSA); format: binding
Chain of TEAD1 (P28347 whole entry): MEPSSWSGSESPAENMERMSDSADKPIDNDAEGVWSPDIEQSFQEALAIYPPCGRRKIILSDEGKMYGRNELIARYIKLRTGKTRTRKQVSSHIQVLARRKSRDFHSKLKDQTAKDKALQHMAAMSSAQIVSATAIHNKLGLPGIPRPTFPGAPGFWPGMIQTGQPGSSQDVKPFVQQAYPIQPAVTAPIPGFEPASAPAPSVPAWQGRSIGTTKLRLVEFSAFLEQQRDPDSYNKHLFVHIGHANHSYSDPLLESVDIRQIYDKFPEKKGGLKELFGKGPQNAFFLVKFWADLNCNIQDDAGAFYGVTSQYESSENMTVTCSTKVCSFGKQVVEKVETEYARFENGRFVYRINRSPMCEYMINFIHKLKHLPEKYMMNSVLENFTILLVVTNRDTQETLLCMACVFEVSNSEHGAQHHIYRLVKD
Description: (§1) Thermal shift assay (TSA) is a biophysical method to evaluate stability of proteins with change in temperature. The assay measures thermal denaturation temperature in varying conditions such as different drug concentration. For this example, fluorogenic dye was used that bind to unfolded proteins. SYPRO Orange binds non-specifically to hydrophobic surfaces, and water strongly quenches its fluorescence. When the protein unfolds, the exposed hydrophobic surfaces bind the dye, resulting in an increase in fluorescence by excluding water. Detergent micelles also bind the dye and increase background noise dramatically. Binding of small molecules to proteins leads to a stabilization against to thermal denaturation with the degree of thermal stabilization proportional to the strength of binding.
(§2) The study described in this example investigated the change in melting temperature (ΔTm) of TEAD isoforms 1˜4 when treated with TEAD inhibitors. Compound 1-1-a known strong TEAD1 and weak TEAD2 inhibitor; as well as Compound 1-4-a pan-TEAD inhibitor were used as controls.
(§3) Tris-HCL was dissolved in 5 mL of Cell culture grade water and allowed to dissolve completely. The pH was adjusted to 8 using NaOH. Additional assay buffer components were added in the order listed above. The buffer was mixed slowly.
(§4) Assay buffer was prepared according to the procedures outlined above and dispensed into test wells. Spyro orange was added to a concentration of 5× in the assay buffer, followed by test compound stock solution which was added to a concentration of 10 μM or 30 μM in the assay buffer.
(§5) The melt cycle was performed in Bio-RAD PCR instrument from 20-95° C. with ramp rate of 1° C./min.

TEAD2 = TEAD2 (Homo sapiens, UniProt Q15562); assay: TEAD thermal shift assay (TSA); format: binding
Chain of TEAD2 (Q15562 whole entry): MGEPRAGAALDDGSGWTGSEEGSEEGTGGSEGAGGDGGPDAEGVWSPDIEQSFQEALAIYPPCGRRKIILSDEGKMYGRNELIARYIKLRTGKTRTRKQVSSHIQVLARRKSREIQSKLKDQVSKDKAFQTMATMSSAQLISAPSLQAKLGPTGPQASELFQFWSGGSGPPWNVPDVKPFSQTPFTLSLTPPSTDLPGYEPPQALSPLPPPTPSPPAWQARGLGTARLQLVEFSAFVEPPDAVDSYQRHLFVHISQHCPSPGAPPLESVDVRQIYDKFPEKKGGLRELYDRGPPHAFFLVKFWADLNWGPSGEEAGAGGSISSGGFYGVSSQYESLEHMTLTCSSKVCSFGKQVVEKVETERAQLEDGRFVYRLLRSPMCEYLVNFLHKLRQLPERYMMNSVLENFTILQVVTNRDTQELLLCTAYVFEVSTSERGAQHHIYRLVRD
Description: as §1, §2, §3, §4, §5

TEAD3 = TEAD3 (Homo sapiens, UniProt Q99594); assay: TEAD thermal shift assay (TSA); format: binding
Chain of TEAD3 (Q99594 whole entry): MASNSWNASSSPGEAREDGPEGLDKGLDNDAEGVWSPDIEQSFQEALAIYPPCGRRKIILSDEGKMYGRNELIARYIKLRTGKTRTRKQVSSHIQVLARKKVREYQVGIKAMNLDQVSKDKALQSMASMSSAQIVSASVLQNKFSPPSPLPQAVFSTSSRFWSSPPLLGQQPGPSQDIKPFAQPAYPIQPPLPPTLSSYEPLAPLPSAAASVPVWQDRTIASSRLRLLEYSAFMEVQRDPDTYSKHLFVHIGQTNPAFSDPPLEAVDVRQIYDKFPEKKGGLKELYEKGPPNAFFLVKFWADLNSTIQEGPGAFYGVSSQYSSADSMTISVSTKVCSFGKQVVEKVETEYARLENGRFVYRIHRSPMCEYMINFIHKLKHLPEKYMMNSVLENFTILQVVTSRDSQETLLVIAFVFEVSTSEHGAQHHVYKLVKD
Description: as §1, §2, §3, §4, §5

TEAD4 = TEAD4 (Homo sapiens, UniProt Q15561); assay: TEAD thermal shift assay (TSA); format: binding
Chain of TEAD4 (Q15561 whole entry): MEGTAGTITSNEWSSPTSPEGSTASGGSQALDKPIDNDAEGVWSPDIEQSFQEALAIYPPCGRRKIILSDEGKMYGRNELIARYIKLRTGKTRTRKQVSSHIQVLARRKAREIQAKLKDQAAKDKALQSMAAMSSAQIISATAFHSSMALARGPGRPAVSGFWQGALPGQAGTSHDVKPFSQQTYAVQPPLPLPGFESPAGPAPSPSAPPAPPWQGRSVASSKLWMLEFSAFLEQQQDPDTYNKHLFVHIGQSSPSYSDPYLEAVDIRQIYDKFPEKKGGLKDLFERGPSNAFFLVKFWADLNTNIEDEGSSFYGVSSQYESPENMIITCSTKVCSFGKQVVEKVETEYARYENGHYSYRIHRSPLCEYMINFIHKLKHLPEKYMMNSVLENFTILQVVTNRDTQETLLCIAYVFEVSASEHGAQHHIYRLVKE
Description: as §1, §2, §3, §4, §5

[1] = ratio of protein to compound 1:1
[2] = ratio of protein to compound 1:3

Compound	TEAD1 ΔTm (TEAD1; [1])	TEAD1 ΔTm (TEAD1; [2])	TEAD2 ΔTm (TEAD2; [1])	TEAD2 ΔTm (TEAD2; [2])	TEAD3 ΔTm (TEAD3; [1])	TEAD3 ΔTm (TEAD3; [2])	TEAD4 ΔTm (TEAD4; [1])	TEAD4 ΔTm (TEAD4; [2])	EC50 (BHY cells; 144 hours)	EC50 (SDM103T2 cells)	EC50 (BHY cells; 144 h)
C[C@H](NC(=O)c1cnc2c(C3=CC[C@@H](C(F)(F)F)CC3)cccc2c1)c1ncco1 (single isomer, unassigned) [Compound 19, N-(1-(oxazol-2-yl)ethyl)-8-(4-(trifluoromethyl)cyclohex-1-en-1-yl)quinoline-3-carboxamide]	12 °C	12 °C	2 °C	3 °C	2 °C	4 °C	2 °C	3 °C	< 200 nM	< 200 nM	
C[C@@H](NC(=O)c1cnc2c(C3=CCC4(CC3)CC4)cccc2c1)c1ncco1 [Compound 166, (R)—N-(1-(oxazol-2-yl)ethyl)-8-(spiro[2.5]oct-5-en-6-yl)quinoline-3-carboxamide]										< 200 nM	
C[C@H](CO)NC(=O)c1cnc2c(C3=CCC(C(F)(F)F)CC3)cccc2c1 (stereo partly drawn) [Compound 7, N—((R)-1-hydroxypropan-2-yl)-8-(4-(trifluoromethyl)cyclohex-1-en-1-yl)quinoline-3-carboxamide]	9 °C	11 °C	2 °C	3 °C	2 °C	2 °C	1.5 °C	3 °C		< 200 nM	< 200 nM
C[C@H](NC(=O)c1cnc2c(C3=CC[C@@H](C(F)(F)F)CC3)cccc2c1)c1ncco1 (single isomer, unassigned) [Compound 20, N-(1-(oxazol-2-yl)ethyl)-8-(4-(trifluoromethyl)cyclohex-1-en-1-yl)quinoline-3-carboxamide]	10 °C	13 °C	1 °C	3 °C	2 °C	4.5 °C	1.5 °C	3 °C			< 200 nM
C[C@H](NC(=O)c1cnc2c(C3=CCC(C(F)(F)F)CC3)cccc2c1)c1ccccn1 (stereo partly drawn) [Compound 2, N—((S)-1-(pyridin-2-yl)ethyl)-8-(4-(trifluoromethyl)cyclohex-1-en-1-yl)quinoline-3-carboxamide]	10 °C	12 °C	1 °C	1.5 °C	2 °C	3 °C	2 °C	4 °C			
O=C(NCc1ncco1)c1cnc2c(C3=CCC(C(F)(F)F)CC3)cccc2c1 (stereo not shown) [Compound 11, N-(oxazol-2-ylmethyl)-8-(4-(trifluoromethyl)cyclohex-1-en-1-yl)quinoline-3-carboxamide]	11 °C	11.5 °C	3 °C	3 °C	3.5 °C	3 °C	1.5 °C	2.5 °C		< 200 nM	
C=CC(=O)Nc1ccc(C)c(Oc2ccc(Cl)cc2)c1 [Compound 1-3, reference compound]										< 200 nM	< 200 nM
C[C@H](CO)NC(=O)c1cnc2c(C3=CCC4(CC3)CC(F)(F)C4)cccc2c1 [Compound 165, (R)-8-(2,2-difluorospiro[3.5]non-6-en-7-yl)-N-(1-hydroxypropan-2-yl)quinoline-3-carboxamide]										< 200 nM	
FC(F)(F)c1ccc(CN2CCC(C3CC(Br)=NO3)CC2)cc1 (stereo not shown) [Compound 1-2, reference compound]										> 1000 nM	> 1000 nM

Now from value to compound, other results behind:

TEAD1 ΔTm (TEAD1; [1])	TEAD1 ΔTm (TEAD1; [2])	TEAD2 ΔTm (TEAD2; [1])	TEAD2 ΔTm (TEAD2; [2])	TEAD3 ΔTm (TEAD3; [1])	TEAD3 ΔTm (TEAD3; [2])	TEAD4 ΔTm (TEAD4; [1])	TEAD4 ΔTm (TEAD4; [2])	Compound	EC50 (BHY cells; 144 hours)	EC50 (SDM103T2 cells)	EC50 (BHY cells; 144 h)
14 °C	16 °C	2 °C	3 °C	2 °C	3 °C	2 °C	3 °C	COc1cc(C2=CCC(C(F)(F)F)CC2)c2ncc(C(=O)N[C@H](C)CO)cc2c1 (stereo partly drawn) [Compound 110, N—((R)-1-hydroxypropan-2-yl)-6-methoxy-8-(4-(trifluoromethyl)cyclohex-1-en-1-yl)quinoline-3-carboxamide]		< 200 nM	
9 °C	11 °C	2 °C	2 °C	2 °C	3 °C	3 °C	3 °C	O=C(NCc1ccn[nH]1)c1cnc2c(C3=CCC(C(F)(F)F)CC3)cccc2c1 (stereo not shown) [Compound 47, N-((1H-pyrazol-5-yl)methyl)-8-(4-(trifluoromethyl)cyclohex-1-en-1-yl)quinoline-3-carboxamide]		< 200 nM	< 200 nM
9 °C	11 °C	3 °C	3 °C	1 °C	2 °C	2 °C	3 °C	COC[C@H](CO)NC(=O)c1cnc2c(C3=CCC(C(F)(F)F)CC3)cccc2c1 (stereo partly drawn) [Compound 62, N—((S)-1-hydroxy-3-methoxypropan-2-yl)-8-(4-(trifluoromethyl)cyclohex-1-en-1-yl)quinoline-3-carboxamide]		< 200 nM	< 200 nM
13 °C	14 °C	3 °C	2 °C	2 °C	3 °C	1 °C	2 °C	COc1cc(C2=CCC(C(F)(F)F)CC2)c2ncc(C(=O)N[C@H](C)c3ncco3)cc2c1 (stereo partly drawn) [Compound 109, 6-methoxy-N—((R)-1-(oxazol-2-yl)ethyl)-8-(4-(trifluoromethyl)cyclohex-1-en-1-yl)quinoline-3-carboxamide]		< 200 nM	< 200 nM
